According to patent publication US8796300B2, “Therapeutic compounds” (Rutgers, the State University of New Jersey, priority 2009, dated 2014):

Tests used:
[1] = system: Human Telomeric G-Quadruplex DNA d(T2AG3)4; experiment: UV melting, thermal stabilization of G-quadruplex DNA (Test A); format: binding; settings: pH 7.5, 50 mM K+; Tm of the drug-DNA complex minus that of the DNA alone; absorbance at 295 nm
Excerpt: (§1) Test A. Selective Stabilization of G-Quadruplex DNA Analyses can be performed to determine the ability of the compounds to selectively bind and thermally stabilize quadruplex relative to duplex DNA. Toward this end, the UV absorbances of the DNA molecules are monitored as a function of temperature in the absence and presence of compound. The melting of duplex DNA is generally associated with a hyperchromic shift at 260 nm, while the melting of quadruplex DNA is associated with a hypochromic shift at 295 nm. Thus, the temperature-dependent absorbances of duplex DNA are monitored at 260 nm, with the corresponding quadruplex absorbances being monitored at 295 nm. Salmon testes DNA can be used as a representative model of duplex DNA and d([…])4 can be used as a representative model of quadruplex DNA. All UV melting studies are conducted at physiological pH (7.4) in the presence of potassium ions at physiologically relevant concentrations. Representative compounds of formula I (compounds 6, 32, and 33) were evaluated for their abilities to selectively bind and stabilize G-quadruplex relative to duplex DNA. […] By contrast, none of the compounds exert any impact on the thermal stability of the DNA duplex (ΔTm=0° C. for all three compounds).

Salmon Testes Duplex DNA = experiment: UV melting, thermal stabilization of duplex DNA (Test A); format: binding; settings: pH 7.5, 50 mM K+; Tm of the drug-DNA complex minus that of the DNA alone; absorbance at 260 nm
Excerpt: as §1

[2] = system: KB3-1 human epidermoid carcinoma tumor cells; experiment: MTT cytotoxicity assay (Test B); format: cell-based; settings: KB 3-1, 96 h, cells cultured 4 days
Excerpt: (§2) Test B. Evaluation of G-Quadruplex Stabilizers using the MTT Assay.
(§3) Cell lines are selected based upon one or more factors including data on their relative telomerase activity, varied organ sites, available comparative data, and their ability to form solid tumors in athymic nude mice. The advantage of an MTT assay is that the cytotoxic/cytostatic activities can be readily determined.

[3] = system: human lymphoblastoma cell line RPMI 8402; experiment: MTT cytotoxicity assay (Test B); format: cell-based; settings: RPMI 8402, 96 h, cells cultured 4 days
Excerpt: as §2, §3

[4] = system: MDA-MB-435 human tumor xenografts (human melanoma cells); experiment: Human tumor xenograft athymic nude mouse model (Test C); format: in vivo, female NCR/NU NU mice; settings: ip injection; athymic nude mice; tumor volume
Procedure: Test C. Evaluation of G-Quadruplex Stabilizers in the Human Tumor Xenograft Athymic Nude Mouse Model.
Compound 33 inhibited the growth of MDA-MD-435 human tumor xenografts (developed from human melanoma cells) in vivo by more than 50% when administered by ip injection. Bioassays were performed using female NCR/NU NU mice of approximately 9 weeks of age as obtained from Taconic Farms, Inc. (Germantown, N.Y., USA). Mice were housed 4 per cage in laminar flow HEPA filtered microisolator caging (Allentown Caging Equipment Co., Allentown, N.J., USA). Mice were fed Purina autoclavable breeder chow #5021 and given drinking water, purified by reverse-osmosis, ad libitum. Five days after arrival within the animal facility, the mice were inoculated on the right flank with 1.5×10^6 MDA-MB-435 tumor cells in 0.1 mL of RPMI 1640 Media by sc injection (25 gauge needle×⅝″). The MDA-MB-435 cells were grown in 75 cm^2 flasks using RPMI 1640 Media and 10% fetal bovine serum. Tumors were of sufficient size at 19-20 days after inoculation. Tumor-bearing mice were evenly matched in each experimental group based on tumor volume. Tumor volume was calculated by measuring the tumor with a microcaliper. The length (l) is the maximum two dimensional distance of the tumor and the width (w) is the maximum distance perpendicular to this length measured in mm. Tumor volume was calculated using the formula (l*w^2)/2.

telomerase = settings: read-out: telomerase inhibitory activity IC50; cited from earlier work
LAN5 = settings: human neuroblastoma cell line; read-out: cytotoxicity IC50 LAN5; cited from earlier work
SK-N-AS = settings: human neuroblastoma cell line; read-out: cytotoxicity IC50 SK-N-AS; cited from earlier work
WAC2 = settings: human neuroblastoma cell line; read-out: cytotoxicity IC50 WAC2; cited from earlier work
LAN1 = settings: human neuroblastoma cell line; read-out: cytotoxicity IC50 LAN1; cited from earlier work
MiaPaCa = settings: human pancreatic carcinoma; read-out: cytotoxicity IC50 MiaPaCa; cited from earlier work
[5] = system: HBC-4, BSY-1, HBC-5, MCF-7, and MDA-MB-231; settings: range over HBC-4, BSY-1, HBC-5, MCF-7, MDA-MB-231; read-out: GI50 against human breast cancer cell lines; cited from earlier work

melting point | Compound | IC50 [2] | IC50 [3] | other results
320 to 324 °C (dec.) | O=C1NCc2cccc(c2)CNC(=O)c2coc(n2)-c2coc(n2)-c2cccc(n2)-c2nc(co2)-c2nc1co2 [Compound 6] | 1200 nM | 1050 nM | Human Telomeric G-Quadruplex DNA ΔTm [1]: 20.5 °C; Salmon Testes Duplex DNA ΔTm (Salmon Testes Duplex DNA): 0 °C
330 °C (dec.) | O=C1NCc2cccc(n2)CNC(=O)c2coc(n2)-c2coc(n2)-c2cccc(n2)-c2nc(co2)-c2nc1co2 [Compound 7] | > 5000 nM | > 5000 nM | –
276 °C (dec.) | O=C1NCCNCCNC(=O)c2coc(n2)-c2coc(n2)-c2cccc(n2)-c2nc(co2)-c2nc1co2 [Compound 8] | 4000 nM | > 10000 nM | –
274 to 275 °C (dec.) | O=C1NCc2cccc(c2)CNC(=O)c2coc(n2)-c2csc(n2)-c2cccc(n2)-c2nc(co2)-c2nc1co2 [Compound 14] | 260 nM | 1000 nM | –
245 °C | O=C1NCc2cccc(c2)CNC(=O)c2coc(n2)-c2csc(n2)-c2cccc(n2)-c2nc(cs2)-c2nc1co2 [Compound 22] | > 10000 nM | > 10000 nM | –
211 to 213 °C | O=C1NCc2cccc(c2)CNC(=O)c2coc(n2)-c2coc(n2)-c2cc(Br)cc(n2)-c2nc(co2)-c2nc1co2 [Compound 28] | 150 nM | 300 nM | –
248 to 250 °C | O=C1NCc2cc(Br)cc(c2)CNC(=O)c2coc(n2)-c2coc(n2)-c2cccc(n2)-c2nc(co2)-c2nc1co2 [Compound 29] | 60 nM | 300 nM | –
196 to 198 °C | O=C(NCCc1cc2cc(c1)CNC(=O)c1coc(n1)-c1coc(n1)-c1cccc(n1)-c1nc(co1)-c1nc(co1)C(=O)NC2)OCc1ccccc1 [Compound 30] | 120 nM | 120 nM | –
290 °C (dec.) | O=C1NCc2cc(CCNC(=O)C(F)(F)F)cc(c2)CNC(=O)c2coc(n2)-c2coc(n2)-c2cccc(n2)-c2nc(co2)-c2nc1co2 [Compound 31] | 70 nM | 170 nM | –
277 to 280 °C (dec.) | NCCc1cc2cc(c1)CNC(=O)c1coc(n1)-c1coc(n1)-c1cccc(n1)-c1nc(co1)-c1nc(co1)C(=O)NC2 [Compound 32] | 30 nM | 90 nM | –
295 °C (dec.) | CN(C)CCc1cc2cc(c1)CNC(=O)c1coc(n1)-c1coc(n1)-c1cccc(n1)-c1nc(co1)-c1nc(co1)C(=O)NC2 [Compound 33] | 40 nM | 180 nM | Human Telomeric G-Quadruplex DNA ΔTm [1]: 31.5 °C; Salmon Testes Duplex DNA ΔTm (Salmon Testes Duplex DNA): 0 °C; inhibition of growth of human tumor xenografts in vivo [4]: more than 50%
250 °C (dec.) | O=C1NCc2cc(Br)cc(c2)CNC(=O)c2coc(n2)-c2coc(n2)-c2cc(Br)cc(n2)-c2nc(co2)-c2nc1co2 [Compound 34] | > 10000 nM | > 10000 nM | –
204 to 205 °C | O=C(NCCc1cc2cc(c1)CNC(=O)c1coc(n1)-c1coc(n1)-c1cc(Br)cc(n1)-c1nc(co1)-c1nc(co1)C(=O)NC2)OCc1ccccc1 [Compound 35] | 600 nM | 1000 nM | –
305 to 307 °C (dec.) | O=C1NCc2cc(CCNC(=O)C(F)(F)F)cc(c2)CNC(=O)c2coc(n2)-c2coc(n2)-c2cc(Br)cc(n2)-c2nc(co2)-c2nc1co2 [Compound 36] | 4000 nM | > 10000 nM | –
249 to 252 °C (dec.) | O=C1NCc2cccc(c2)CNC(=O)c2coc(n2)-c2coc(n2)-c2cc(OCCCN3C(=O)c4ccccc4C3=O)cc(n2)-c2nc(co2)-c2nc1co2 [Compound 43] | 400 nM | 4500 nM | –
289 to 290 °C (dec.) | O=C1NCc2cc(Br)cc(c2)CNC(=O)c2coc(n2)-c2coc(n2)-c2cc(OCCCN3C(=O)c4ccccc4C3=O)cc(n2)-c2nc(co2)-c2nc1co2 [Compound 44] | 1000 nM | 1000 nM | –
167 to 170 °C | O=C(NCCc1cc2cc(c1)CNC(=O)c1coc(n1)-c1coc(n1)-c1cc(OCCCN3C(=O)c4ccccc4C3=O)cc(n1)-c1nc(co1)-c1nc(co1)C(=O)NC2)OCc1ccccc1 [Compound 45] | > 10000 nM | > 10000 nM | –
237 to 239 °C (dec.) | NCCCOc1cc2nc(c1)-c1nc(co1)-c1nc(co1)C(=O)NCc1cccc(c1)CNC(=O)c1coc(n1)-c1coc-2n1 [Compound 46] | 3000 nM | 5000 nM | –
– | CC(=O)NCCCOc1cc2nc(c1)-c1nc(co1)-c1nc(co1)C(=O)NCc1cccc(c1)CNC(=O)c1coc(n1)-c1coc-2n1 [Compound 47] | 10000 nM | > 10000 nM | –
– | CN(C)c1cc2cc(c1)CNC(=O)c1coc(n1)-c1coc(n1)-c1cccc(n1)-c1nc(co1)-c1nc(co1)C(=O)NC2 [Compound 48] | 30 nM | 60 nM | –
– | CC(C)(C)OC(=O)NCCc1cc2cc(c1)CNC(=O)c1coc(n1)-c1coc(n1)-c1cccc(c1)-c1nc(co1)-c1nc(co1)C(=O)NC2 [Compound 59] | 3100 nM | 3600 nM | –
– | CN(C)CCc1cc2cc(c1)CNC(=O)c1coc(n1)-c1coc(n1)-c1cccc(c1)-c1nc(co1)-c1nc(co1)C(=O)NC2 [Compound 61] | 400 nM | 2000 nM | –
– | CN(C)CCc1oc2nc1C(=O)NCc1cccc(c1)CNC(=O)c1nc(oc1CCN(C)C)-c1coc(n1)-c1cccc(n1)-c1nc-2co1 [Compound 78] | 100 nM | 200 nM | –
– | Cc1oc2nc1-c1nc(co1)-c1nc(co1)-c1nc(co1)-c1nc(co1)-c1nc(co1)C1=NC(CS1)c1nc-2c(C)o1 (stereo not shown) [Telomestatin] | – | – | IC50 (telomerase): 5 nM; IC50 (LAN5): 2500 nM; IC50 (SK-N-AS): 800 nM; IC50 (WAC2): 3200 nM; IC50 (LAN1): 4000 nM; IC50 (MiaPaCa): 500 nM
– | CC[C@H](C)[C@@H]1NC(=O)c2nc(oc2-c2ccccc2)-c2csc(n2)-c2coc(n2)-c2coc(n2)-c2coc(n2)CNC(=O)[C@@H](C(C)C)NC1=O [YM-216391] | – | – | GI50 [5]: 15 to 33 nM
